# Experimental data from paper PMC8694143 (Microbiology Spectrum, 2021).
# No end group written: not given here.
# Tests used:
# [1] = tested on: HeLa (ATCC CCL-2) cells; test: HeLa cytotoxicity, alamarBlue; type: cell-based, human; settings: monolayers, 3.13 to 200 μg/mL, 24 h, alamarBlue fluorescence; estimated
# Protocol: Cytotoxicity was measured using the 3D EpiDerm skin tissues and HeLa (ATCC CCL-2) cells using a fluorescent reporter of cell viability, alamarBlue (ThermoFisher Scientific). 3D EpiDerm skin tissues (MatTek EPI-200-AFAB) were transferred to a 12-well plate containing 600 μL of AFAB-assay medium supplemented with 10% vol/vol alamarBlue. […] HeLa cells were seeded in a 96-well plate at 2 × 10^4 cells/per well and incubated overnight at 37°C in a humidified 5% CO2 environment to prepare wells at ∼50% confluence for treatments after spent Dulbecco’s modified Eagle’s medium (DMEM) was removed and cells were washed with PBS. Assays were then performed using phenol red-free DMEM supplement with 9% vol/vol alamarBlue and peptide concentrations varying from 3.13 to 200 μg/mL. After a 24 h incubation period, alamarBlue fluorescence emission was measured at 590 nm upon excitation at 560 nm using Varioskan Lux plate reader (Thermo Scientific). Fluorescence intensities of treated cultures were normalized to measurement made for untreated control samples. Experimental data sets were fit to nonlinear dose-response curves to determine IC50 values using Origin 2019.
# [2] = target: SspA protease (Staphylococcus aureus, UniProt P0C1U8); test: SspA protease treatment with HPLC/MS analysis; type: in vitro ADME; settings: peptide 45 μL at 10 mg/mL + SspA 5 μL at 2 mg/mL, 100 mM HEPES pH 7.8, 37°C, 5 h
# Chain of SspA protease (P0C1U8 69-336): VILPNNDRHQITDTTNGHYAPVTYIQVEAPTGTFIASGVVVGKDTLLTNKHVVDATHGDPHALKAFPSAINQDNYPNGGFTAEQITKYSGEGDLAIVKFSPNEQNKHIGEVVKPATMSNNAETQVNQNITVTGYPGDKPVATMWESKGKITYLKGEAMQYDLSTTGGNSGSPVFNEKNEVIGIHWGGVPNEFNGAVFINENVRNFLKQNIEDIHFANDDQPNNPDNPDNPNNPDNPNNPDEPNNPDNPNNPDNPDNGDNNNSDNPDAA
# Protocol: SspA protease was resuspended at 2 mg/mL in 100 mM HEPES (pH 7.8). Peptide samples (45 μL at 10 mg/mL) were mixed with SspA (5 μL at 2 mg/mL) and incubated at 37°C for a total of 5 h. The antimicrobial activities of the reaction mixtures were assayed by spotting 5 μL (∼45 μg) of each on either M. luteus or S. aureus test organisms as described above. Additional samples were flash frozen in liquid nitrogen and stored at −80°C prior to high-pressure liquid chromatography-mass spectrometry (HPLC/MS) analysis.
# HPLC/MS analyses were conducted to assess the proteolytic cleavage of STIPs by the SspA protease and catalogue peptides in the reaction mixtures. An Agilent Infinity II 1260 HPLC outfitted with a Phenomenex Lune C5 column (4.6 by 150 mm, 5 μm) was used to separate the peptide fragments using a binary solvent system consisting of solvent A (water, 0.05% formic acid) and solvent B (acetonitrile, 0.05% formic acid) operating at 0.7 mL/min. A 5-μL volume (∼4.5 μg) of each sample was injected at 10% solvent B, followed by a two-step gradient elution from 10% to 50% solvent B in 30 min, then 50% to 100% B in 10 min. The HPLC was coupled to an Advion CMS(L) single quadrupole mass detector through an electrospray ionization source, and ions were detected between 100 and 2,000 m/z. Low temperature and fragmentation settings were used: capillary temperature 135°C, capillary voltage 120 V, source voltage offset 20 V, source gas temperature 135°C, and electrospray ionization (ESI) voltage 3,500 V.
# [3] = tested on: MRSA ATCC 33592; test: MIC determination in broth; type: cell-based, Staphylococcus aureus; settings: Table 1 and text; cation-adjusted MH broth, ~10^5 CFU/mL, 37°C, 16 h
# Procedure, shortened: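 MIC read after unshaken incubation at 37°C of bacteria (∼10^5 CFU/mL, OD 5 × 10^−4) with twofold peptide dilutions in cation-adjusted MH broth.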
# [4] = tested on: S. aureus; test: MIC of STIP3-1 alanine variants in liquid broth; type: cell-based, Staphylococcus aureus; settings: Table S4; maximum concentration tested 200 μg/mL; strain not given
# Protocol: The MICs were measured for bioactive peptides identified from the initial screen. […] […] Plates were incubated without shaking at 30 or 37°C depending on the organism.
# [5] = tested on: M. luteus ATCC 4698; test: MIC determination in broth; type: cell-based, Micrococcus luteus; settings: cation-adjusted MH broth, ~10^5 CFU/mL, 30°C, 48 h
sequence,measurement,setting,value
TVGGLVKWILDTVKKFA [STIP3-1],"IC50, HeLa cell survival",[1],200 ± 30 µg/mL
same,Susceptibility to SspA cleavage,[2],further proteolysis can occur
same,MIC (μg/mL) for MRSA ATCC 33592,[3],100 µg/mL
same,"MIC, S. aureus (alanine substituted STIP3-1, liquid broth)",[4],100 µg/mL
same,"MIC, M. luteus",[5],12.5 µg/mL
